According to patent publication US20250171420A1 (Monte Rosa Therapeutics, Inc., priority 2022, published 2025):
Like-named read-outs stand apart in the source and are kept apart here.

Tests used:
SKCO1 cell line = assay: Growth inhibition, CyQUANT Direct Cell Proliferation Assay, SKCO1; type: cell-based; settings: Homo sapiens
Protocol: (§1) SKCO1, LS180, and LS174T cell lines were purchased from ATCC. CW2 cell line was purchased from Riken. GP2D cell line was purchased from Sigma/ECACC. All cell lines were cultured in manufacturer's recommended media at 37° C., 5% CO2. Briefly, cells were suspended in 200 μL of media and seeded at 300 to 1,800 cells per well in tissue culture treated 96-well plates with black walls and clear bottom. Plates were incubated overnight and initial (To) read was performed the following day using CyQUANT Direct Cell Proliferation Assay Kit (Thermo Fisher Scientific) according to manufacturer's protocol. All compounds were solubilized in DMSO and prepared at 3-fold serial dilution, using 9 points starting at 30 μM as highest concentration, administered to cells and incubated for 120 to 168 hours, at which point CyQUANT assay measurement was performed using Acumen Cellista instrument (Ex/Em 480/520 nm). Media-only wells were used as blank, and 0.3% DMSO was used as DMSO-treated cell control. Growth inhibition (percent response) was calculated using the following formula in Excel: “=if ([Compound treated Day N]>[Untreated Day 0, AVG], ([Compound treated Day N]−[Untreated Day 0, AVG])/([Untreated Day N]−[Untreated Day 0, AVG])*100, ([Compound Treated Day N]−[Untreated Day 0, AVG])/([Untreated Day 0, AVG])*100)”. GI50 is the response corresponding to the 50% of untreated control.
(§2) GI50 data are reported in Tables 4a, 4b, 4c, 4d, and 4e for compounds in Table 1. In Tables 4a, 4b, 4c, 4d, and 4e below, According to the code, A represents a GI50 value of ≤0.1 μM, B represents a GI50 value>0.1 μM and ≤1 μM, C represents an GI50 value>1 μM.

LS174T cell line = assay: Growth inhibition, CyQUANT Direct Cell Proliferation Assay, LS174T; type: cell-based; settings: Homo sapiens
Protocol: as §1, §2

GP2D cell line = assay: Growth inhibition, CyQUANT Direct Cell Proliferation Assay, GP2D; type: cell-based
Protocol: as §1, §2

CK1α = target: T1, CK1α (Homo sapiens, UniProt P48729); assay: CK1α NanoBit Assay (HiBiT-tagged CSNK1A1, HEK293 clonal lines); type: cell-based; settings: HEK293 HiBiT-CSNK1A1/LgBiT cells, 24 h incubation
T1 construct: HEK293 clonal lines with CRISPR KI HiBiT tag on CSNK1A1
How it was run: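 HEK293 clones carrying a CRISPR knock-in HiBiT tag on CSNK1A1 and stably expressing LgBiT are treated with compound for 24 hours at 37° C, 5% CO2, then read by luminescence. Response is normalized as 100*(S−N)/(P−N) against plate negative and positive controls, and DC50 values are derived.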

CRBN/DDB1 = CRBN/DDB1 (Homo sapiens, UniProt Q96SW2); assay: HTRF binding assay (displacement of Cy5-thalidomide probe from CRBN/DDB1); settings: CRBN/DDB1 2.5 nM, Cy5-Thalidomide 100 nM, 30 min; geometric mean; read-out: HTRF_Thali_Disp_DR_geo_IC50
How it was run: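 Compounds in a 10-point threefold dilution series were incubated 30 min at ambient temperature with 2.5 nM CRBN/DDB1, 100 nM Cy5-thalidomide probe and terbium anti-His donor (HEPES/NaCl/TCEP/EDTA/Tween20 buffer). IC50 came from 4-parameter fits of the 665/620 nm HTRF ratio; Ki used Cheng-Prusoff on geometric-mean IC50.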

CW2 cell line = assay: Growth inhibition, CyQUANT Direct Cell Proliferation Assay, CW2; type: cell-based; settings: Homo sapiens
Protocol: as §1, §2

LS180 cell line = assay: Growth inhibition, CyQUANT Direct Cell Proliferation Assay, LS180; type: cell-based; settings: Homo sapiens
Protocol: as §1, §2

[1] = SK-CO-1, SKCO1, 120 to 168 hours, read-out: SKCO1 GI50
[2] = 120 to 168 hours, read-out: LS174T GI50
[3] = GP2D, 120 to 168 hours, read-out: GP2D GI50
[4] = CW-2, CW2, 120 to 168 hours, read-out: CW2 GI50
[5] = LS180, 120 to 168 hours, read-out: LS180 GI50
[6] = SK-CO-1, read-out: SKCO1 GI50 (μM)
[7] = LS180, read-out: LS180 GI50 (μM)

Sequence of CRBN/DDB1 (Q96SW2 whole entry, species assumed): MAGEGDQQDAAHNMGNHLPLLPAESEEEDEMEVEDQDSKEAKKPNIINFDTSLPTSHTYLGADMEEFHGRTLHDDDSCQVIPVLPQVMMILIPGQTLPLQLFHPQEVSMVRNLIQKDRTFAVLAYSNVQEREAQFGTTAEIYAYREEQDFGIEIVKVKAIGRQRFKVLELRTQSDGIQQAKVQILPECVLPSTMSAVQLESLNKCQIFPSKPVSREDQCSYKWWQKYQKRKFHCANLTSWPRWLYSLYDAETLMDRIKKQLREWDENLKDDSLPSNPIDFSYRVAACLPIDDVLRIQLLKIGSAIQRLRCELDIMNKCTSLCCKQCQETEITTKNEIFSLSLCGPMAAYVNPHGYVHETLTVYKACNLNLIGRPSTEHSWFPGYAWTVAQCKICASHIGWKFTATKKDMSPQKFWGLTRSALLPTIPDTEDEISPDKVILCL
Sequence of CRBN/DDB1 (Q16531 whole entry partner, species assumed): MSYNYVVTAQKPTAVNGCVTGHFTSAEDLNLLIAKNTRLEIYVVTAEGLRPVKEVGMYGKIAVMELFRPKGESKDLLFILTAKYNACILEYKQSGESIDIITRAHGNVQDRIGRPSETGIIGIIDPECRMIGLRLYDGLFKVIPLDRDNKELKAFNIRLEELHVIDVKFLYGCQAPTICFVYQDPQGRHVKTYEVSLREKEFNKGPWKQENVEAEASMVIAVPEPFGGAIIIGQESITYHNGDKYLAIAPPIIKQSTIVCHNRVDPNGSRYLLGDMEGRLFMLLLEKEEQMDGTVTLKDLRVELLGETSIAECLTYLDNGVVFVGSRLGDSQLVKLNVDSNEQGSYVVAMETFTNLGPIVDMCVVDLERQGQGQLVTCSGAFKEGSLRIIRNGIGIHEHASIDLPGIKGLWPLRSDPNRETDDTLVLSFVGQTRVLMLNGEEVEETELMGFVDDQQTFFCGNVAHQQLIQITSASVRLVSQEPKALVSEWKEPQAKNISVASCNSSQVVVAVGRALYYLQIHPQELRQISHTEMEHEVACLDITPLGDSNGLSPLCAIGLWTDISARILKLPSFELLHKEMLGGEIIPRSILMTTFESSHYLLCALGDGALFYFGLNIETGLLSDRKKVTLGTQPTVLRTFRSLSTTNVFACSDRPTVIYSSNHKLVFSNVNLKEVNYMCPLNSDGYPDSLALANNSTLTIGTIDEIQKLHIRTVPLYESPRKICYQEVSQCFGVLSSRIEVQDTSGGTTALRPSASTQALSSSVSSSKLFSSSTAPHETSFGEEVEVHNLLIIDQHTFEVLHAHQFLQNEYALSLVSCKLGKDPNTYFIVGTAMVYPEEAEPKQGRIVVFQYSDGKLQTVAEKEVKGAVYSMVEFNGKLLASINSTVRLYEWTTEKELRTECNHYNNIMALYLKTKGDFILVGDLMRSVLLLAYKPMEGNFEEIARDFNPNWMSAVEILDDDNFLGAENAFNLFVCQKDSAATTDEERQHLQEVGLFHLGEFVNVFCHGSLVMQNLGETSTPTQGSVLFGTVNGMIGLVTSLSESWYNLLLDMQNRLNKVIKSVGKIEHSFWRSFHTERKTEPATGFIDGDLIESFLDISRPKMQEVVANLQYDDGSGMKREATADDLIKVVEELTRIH
T1 sequence (P48729 whole entry): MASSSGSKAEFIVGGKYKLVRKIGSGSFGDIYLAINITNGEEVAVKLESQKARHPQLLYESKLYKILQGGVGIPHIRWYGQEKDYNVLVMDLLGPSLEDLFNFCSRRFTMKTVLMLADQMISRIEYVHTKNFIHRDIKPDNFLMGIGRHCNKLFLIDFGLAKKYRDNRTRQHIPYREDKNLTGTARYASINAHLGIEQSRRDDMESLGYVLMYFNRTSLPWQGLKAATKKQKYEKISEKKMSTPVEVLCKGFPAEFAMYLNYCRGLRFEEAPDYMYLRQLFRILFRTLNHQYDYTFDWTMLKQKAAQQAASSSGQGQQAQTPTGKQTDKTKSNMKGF
T1 sequence (Q96SW2 whole entry, further chain): as the sequence (Q96SW2 whole entry, species assumed) above
T1 sequence (Q16531 2-1140 partner limits assumed): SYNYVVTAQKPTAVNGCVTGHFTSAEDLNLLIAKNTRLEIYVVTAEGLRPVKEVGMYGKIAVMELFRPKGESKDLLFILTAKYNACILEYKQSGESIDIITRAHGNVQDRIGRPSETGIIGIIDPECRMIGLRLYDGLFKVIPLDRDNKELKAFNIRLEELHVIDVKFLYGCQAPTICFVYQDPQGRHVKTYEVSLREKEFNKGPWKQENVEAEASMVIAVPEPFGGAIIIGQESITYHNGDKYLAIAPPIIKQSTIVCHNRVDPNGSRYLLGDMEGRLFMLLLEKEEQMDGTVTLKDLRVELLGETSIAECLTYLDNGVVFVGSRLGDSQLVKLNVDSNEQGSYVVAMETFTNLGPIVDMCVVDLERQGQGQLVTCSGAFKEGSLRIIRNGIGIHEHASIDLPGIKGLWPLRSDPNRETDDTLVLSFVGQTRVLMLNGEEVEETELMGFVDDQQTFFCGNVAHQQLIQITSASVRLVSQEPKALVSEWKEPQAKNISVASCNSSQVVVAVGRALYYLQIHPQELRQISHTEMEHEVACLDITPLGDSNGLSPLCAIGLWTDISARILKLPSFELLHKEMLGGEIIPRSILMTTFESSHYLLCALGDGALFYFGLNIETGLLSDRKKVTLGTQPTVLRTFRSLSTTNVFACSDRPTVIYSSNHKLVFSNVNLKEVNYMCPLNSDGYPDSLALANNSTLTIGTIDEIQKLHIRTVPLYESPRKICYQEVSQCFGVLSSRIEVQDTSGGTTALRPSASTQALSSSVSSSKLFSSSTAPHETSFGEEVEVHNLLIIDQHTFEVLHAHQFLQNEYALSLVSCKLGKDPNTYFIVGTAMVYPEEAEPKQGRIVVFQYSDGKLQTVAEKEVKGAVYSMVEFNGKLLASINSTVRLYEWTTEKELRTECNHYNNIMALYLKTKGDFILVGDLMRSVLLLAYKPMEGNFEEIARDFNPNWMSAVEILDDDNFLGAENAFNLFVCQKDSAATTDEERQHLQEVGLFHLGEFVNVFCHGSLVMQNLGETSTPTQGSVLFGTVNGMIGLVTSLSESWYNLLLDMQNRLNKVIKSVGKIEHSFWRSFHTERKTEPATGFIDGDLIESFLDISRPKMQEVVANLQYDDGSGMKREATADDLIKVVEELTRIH

GI50 (SKCO1 cell line; [1]) [µM]	DC50 (CK1α) [µM]	IC50 (CRBN/DDB1) [nM]	SMILES	GI50 (LS174T cell line; [2]) [µM]	GI50 (GP2D cell line; [3]) [µM]	GI50 (CW2 cell line; [4]) [µM]	GI50 (LS180 cell line; [5]) [µM]	also measured
< 0.1	< 0.1	100 to 1000	CC1CN(C(=O)Nc2ccc3c(c2)CN(C2CCC(=O)NC2=O)C3=O)c2ccccc21 (stereo in doubt) [Compound 283, (3R)—N-(2-(2,6-dioxopiperidin-3-yl)-1-oxoisoindolin-5-yl)-3-methylindoline-1-carboxamide]	0.1 to 1	< 0.1	0.1 to 1	0.1 to 1	
0.1 to 1	< 0.1	> 1000	COC[C@@H]1Cc2ccccc2N1C(=O)Nc1ccc2c(c1)CN(C1CCC(=O)NC1=O)C2=O (stereo in doubt) [Compound 334, (S)—N-(2-((R)-2,6-dioxopiperidin-3-yl)-1-oxoisoindolin-5-yl)-2-(methoxymethyl)indoline-1-carboxamide]	0.1 to 1	0.1 to 1	0.1 to 1	0.1 to 1	
< 0.1	< 0.1	100 to 1000	COC[C@@H]1Cc2ccccc2N1C(=O)Nc1ccc2c(c1)CN(C1CCC(=O)NC1=O)C2=O (stereo in doubt) [Compound 337, (S)—N-(2-((S)-2,6-dioxopiperidin-3-yl)-1-oxoisoindolin-5-yl)-2-(methoxymethyl)indoline-1-carboxamide]	0.1 to 1	0.1 to 1	0.1 to 1	0.1 to 1	
< 0.1	< 0.1	100 to 1000	C[C@H]1Cc2ccccc2N1C(=O)Nc1ccc2c(c1)CN(C1CCC(=O)NC1=O)C2=O (stereo partly drawn) [Compound 101, (2S)—N-(2-(2,6-dioxopiperidin-3-yl)-1-oxoisoindolin-5-yl)-2-methylindoline-1-carboxamide]	< 0.1	< 0.1	< 0.1	< 0.1	
< 0.1	< 0.1	100 to 1000	O=C1CCC(N2Cc3cc(NC(=O)N4CCc5ccccc54)ccc3C2=O)C(=O)N1 (centres unmarked) [Compound 103, N-(2-(2,6-dioxopiperidin-3-yl)-1-oxoisoindolin-5-yl)indoline-1-carboxamide]	0.1 to 1	< 0.1	0.1 to 1	0.1 to 1	
0.1 to 1	< 0.1	100 to 1000	O=C1CCC(N2Cc3cc(NC(=O)N4Cc5ccccc5C4)ccc3C2=O)C(=O)N1 (centres unmarked) [Compound 106, N-(2-(2,6-dioxopiperidin-3-yl)-1-oxoisoindolin-5-yl)isoindoline-2-carboxamide]	> 1	0.1 to 1	0.1 to 1	> 1	
	0.1 to 1	100 to 1000	O=C1CCC(N2Cc3cc(NC(=O)N4CCc5ccc(C6COC6)cc54)ccc3C2=O)C(=O)N1 (centres unmarked) [Compound 347, N-(2-(2,6-dioxopiperidin-3-yl)-1-oxoisoindolin-5-yl)-6-(oxetan-3-yl)indoline-1-carboxamide]					
	< 0.1	100 to 1000	O=C1CCC(N2Cc3cc(NC(=O)N4CCc5cc(C6CCOCC6)ccc54)ccc3C2=O)C(=O)N1 (centres unmarked) [Compound 349, N-(2-(2,6-dioxopiperidin-3-yl)-1-oxoisoindolin-5-yl)-5-(tetrahydro-2H-pyran-4-yl)indoline-1-carboxamide]					
	< 0.1	100 to 1000	C[C@@H]1Cc2cccc(F)c2N1C(=O)Nc1ccc2c(c1)CN(C1CCC(=O)NC1=O)C2=O (stereo partly drawn) [Compound 350, (2R)—N-(2-(2,6-dioxopiperidin-3-yl)-1-oxoisoindolin-5-yl)-7-fluoro-2-methylindoline-1-carboxamide]					
	0.1 to 1	100 to 1000	CN1CCN(c2ccc3c(c2)CCN3C(=O)Nc2ccc3c(c2)CN(C2CCC(=O)NC2=O)C3=O)CC1 (centres unmarked) [Compound 351, N-(2-(2,6-dioxopiperidin-3-yl)-1-oxoisoindolin-5-yl)-5-(4-methylpiperazin-1-yl)indoline-1-carboxamide]					
	< 0.1	100 to 1000	COC[C@H]1Cc2ccccc2N1C(=O)Nc1ccc2c(c1)CN(C1CCC(=O)NC1=O)C2=O (stereo partly drawn) [Compound 352, (2R)—N-(2-(2,6-dioxopiperidin-3-yl)-1-oxoisoindolin-5-yl)-2-(methoxymethyl)indoline-1-carboxamide]					
	< 0.1	100 to 1000	CC1Cc2cc(C(F)(F)F)ncc2N1C(=O)Nc1ccc2c(c1)CN(C1CCC(=O)NC1=O)C2=O (centres unmarked) [Compound 353, N-(2-(2,6-dioxopiperidin-3-yl)-1-oxoisoindolin-5-yl)-2-methyl-5-(trifluoromethyl)-2,3-dihydro-1H-pyrrolo[2,3-c]pyridine-1-carboxamide]					
	< 0.1	100 to 1000	C[C@@H]1Cc2c(F)cccc2N1C(=O)Nc1ccc2c(c1)CN(C1CCC(=O)NC1=O)C2=O (stereo partly drawn) [Compound 354, (2R)—N-(2-(2,6-dioxopiperidin-3-yl)-1-oxoisoindolin-5-yl)-4-fluoro-2-methylindoline-1-carboxamide]					
	< 0.1	< 100	O=C1CCC(N2Cc3cc(NC(=O)N4CCc5cc(-n6cccn6)ccc54)ccc3C2=O)C(=O)N1 (centres unmarked) [Compound 355]					
	< 0.1	100 to 1000	C[C@@H]1Cc2ccc(F)cc2N1C(=O)Nc1ccc2c(c1)CN(C1CCC(=O)NC1=O)C2=O (stereo partly drawn) [Compound 356, (2R)—N-(2-(2,6-dioxopiperidin-3-yl)-1-oxoisoindolin-5-yl)-6-fluoro-2-methylindoline-1-carboxamide]					
	< 0.1	100 to 1000	O=C1CCC(N2Cc3cc(NC(=O)N4CCc5ccc(C6CCC6)cc54)ccc3C2=O)C(=O)N1 (centres unmarked) [Compound 358, 6-cyclobutyl-N-(2-(2,6-dioxopiperidin-3-yl)-1-oxoisoindolin-5-yl)indoline-1-carboxamide]					
	0.1 to 1	100 to 1000	O=C1CCC(N2Cc3cc(NC(=O)N4CCc5ccc(C6CCOC6)cc54)ccc3C2=O)C(=O)N1 (centres unmarked) [Compound 364, N-(2-(2,6-dioxopiperidin-3-yl)-1-oxoisoindolin-5-yl)-6-(tetrahydrofuran-3-yl)indoline-1-carboxamide]					
	0.1 to 1	100 to 1000	O=C1CCC(N2Cc3cc(NC(=O)N4CCc5ccc(C6CCOCC6)cc54)ccc3C2=O)C(=O)N1 (centres unmarked) [Compound 365, N-(2-(2,6-dioxopiperidin-3-yl)-1-oxoisoindolin-5-yl)-6-(tetrahydro-2H-pyran-4-yl)indoline-1-carboxamide]					

SMILES	GI50 (SKCO1 cell line; [1]) [µM]	DC50 (CK1α) [µM]	IC50 (CRBN/DDB1) [nM]	GI50 (LS174T cell line; [2]) [µM]	GI50 (GP2D cell line; [3]) [µM]	GI50 (CW2 cell line; [4]) [µM]	GI50 (LS180 cell line; [5]) [µM]	also measured
CC1(C)CN(C(=O)Nc2ccc3c(c2)CN(C2CCC(=O)NC2=O)C3=O)c2ccccc21 (centres unmarked) [Compound 124, N-(2-(2,6-dioxopiperidin-3-yl)-1-oxoisoindolin-5-yl)-3,3-dimethylindoline-1-carboxamide]		< 0.1	100 to 1000					GI50 (SKCO1 cell line; [6]): < 0.1 µM; GI50 (LS174T cell line; read-out: LS174T GI50 (μM)): < 0.1 µM; GI50 (GP2D cell line; GP2d, read-out: GP2D GI50 (μM)): < 0.1 µM; GI50 (CW2 cell line; CW-2, read-out: CW2 GI50 (μM)): < 0.1 µM; GI50 (LS180 cell line; [7]): 0.1 to 1 µM
O=C1CCC(N2Cc3cc(NC(=O)N4CCc5c4cccc5C(F)(F)F)ccc3C2=O)C(=O)N1 (centres unmarked) [Compound 135, N-(2-(2,6-dioxopiperidin-3-yl)-1-oxoisoindolin-5-yl)-4-(trifluoromethyl)indoline-1-carboxamide]		< 0.1	100 to 1000					GI50 (SKCO1 cell line; [6]): < 0.1 µM; GI50 (LS174T cell line; read-out: LS174T GI50 (μM)): 0.1 to 1 µM; GI50 (GP2D cell line; GP2d, read-out: GP2D GI50 (μM)): < 0.1 µM; GI50 (CW2 cell line; CW-2, read-out: CW2 GI50 (μM)): < 0.1 µM; GI50 (LS180 cell line; [7]): 0.1 to 1 µM
